{"source": "patent US20200360426A1", "about": "“PROTOCOL AND COMPOSITION FOR SUPPRESSION OF ALLERGIC RESPONSES” (priority 2019, published 2020)", "test_system": "apheresis patients (allergic reaction to dextran sulfate)", "source_text": "The protocol begins with the oral administration of an antacid and a histamine blocker. […] The histamine blocker can be selected from a number of commercial alternatives. These include, specifically, H-1 blockers, such as loratadine, fexofenadine and azelastine.\nCentrally important and essential is the administration of magnesium, preferably magnesium IV, available as magnesium sulfate. Administration of magnesium sulfate, shortly in advance of apheresis, serves to relax the vascular system, and shift the patient or a sympathetic response to a parasympathetic vascular relaxation response. Magnesium realizes and calms the sympathetic FFF response, the survival instinct that is so prevalent in angioedema. […] While it can be infused over a longer period of more than one hour, a preferred protocol infuses it very rapidly. […] A drip in 100 ml-250 ml normal physiologic saline solution (Ns) or lactated Ringers solution (LR) has been employed. Other carriers, such as dextrose in water (5%) (D5W) or sterile water at smaller volumes, or similar physiologically compatible carriers may be used. A faster drip of not more than 30 minutes is preferable, and may be essential to intervene in and reduce ongoing severe reactions.\nWhen the apheresis is done, dextran sulfate exposure can still cause a reaction. […] Apheresis patients also get oxygen via canula, 2-4 liters a minute through the procedure. […]", "data": [{"molecule": "O=S(=O)([O-])[O-].[Mg+2]", "note": "[magnesium sulfate]", "values": [{"measurement": "allergic reactions observed during dextran sulfate apheresis", "setting": "full protocol: ACE inhibitors stopped at least a week before, antacid and H-1 histamine blocker, magnesium sulfate IV no more than an hour before apheresis, at least 60 apheresis treatments, at least thirty patients", "value": "no issues and little or no allergic reactions were observed"}, {"measurement": "tolerance of Liposorber apheresis treatment", "setting": "seven patients with previous anaphylactoid shock reaction to Liposorber even with IV steroids, magnesium sulfate without any supportive or additional treatments", "value": "allowed all 7 patients to tolerate the treatment"}]}]}
